In test [1] the test system is mouse lung cancer cells [Lewis Lung Carcinoma (LLC)]. Nature of the test: Anticancer characteristic test: cytotoxicity test (apoptosis test) by the Alamar Blue technique. It counts as cell-based. To be noted: FIG. 3. The procedure: Anticancer characteristics of a Pr-embedded liposome according to the present invention were examined by a cytotoxicity test (apoptosis test) making use of the Alamar Blue technique.
Employed were the FeT2 MPyP+4SAS-embedded DMPC liposome system (Invention Product 4, FeT2 MPyP concentrations: 0, 12.5, 25, 50, 100 μM) as a test sample and its corresponding cationic metalloporphyrin complex (FeT2 MPyP) and ion complex system (FeT2 MPyP+4SAS) as reference samples. As cells, on the other hand, mouse lung cancer cells [Lewis Lung Carcinoma (LLC), Riken Gene Bank] were used.
In the test, the mouse lung cancer cells were cultured in DMEM medium with 10% FBS added therein. Subsequent to determination of the cell count and adjustment of the cell concentration, the resulting cell suspension was added to the individual wells of a 96-well plate (100 μL/well, cell count: 1×10^4 cells/well), followed by incubation for 24 hours in a carbon dioxide incubator (CO2:5%). After the medium was removed from the plate, sample solutions of the respective concentrations (100 μL/well, sample concentrations: 0 to 100 μM), said sample solutions having had been prepared in advance, were added, followed by further incubation for 24 hours in the CO2 incubator.
An Alamar Blue solution, which had been sterilized by filtration, was added at 10 μL/well, followed by incubation for 5 hours. Subsequently, absorbance measurements (measurement wavelength: 570 nm, and reference wavelength: 600 nm) were conducted by using a microplate reader.
Anticancer characteristics of Pr-embedded liposomes according to the present invention were examined by a cytotoxicity test (apoptosis test) making use of the Alamar Blue technique as in Example 15.
As test samples, various Pr-embedded liposomes were used (metalloporphyrin complex concentrations: 0, 12.5, 25, 50, 100 μM). As reference samples, on the other hand, the components of the Pr-embedded liposomes, that is, the metalloporphyrin complexes (concentrations: 0, 12.5, 25, 50, 100 μM) and liposomes (concentrations: 2500, 5000, 10000, 20000 μM) were employed (the concentrations of both of the components were set corresponding to the concentrations of the Pr-embedded liposomes).
Provided as comparative samples were cisplatin (CDDP; concentrations: 0, 10, 20, 40, 80 μM) and mitomycin C (MMC; concentrations: 0, 7.5, 15, 30, 60 μM), which are anticancer agents employed at present. A test was conducted as in Example 15, and the following results were obtained.
Anticancer characteristics of pH-sensitive, Pr-embedded liposomes were examined by a cytotoxicity test (apoptosis test) making use of the Alamar Blue technique as in Example 15. […]
A general note: The colour change of resazurin is a common sign of viable cells or microbes.

Test [2] can be described thus: SOD activity (O2-. scavenging) by the cytochrome c method. It counts as biochemical. The settings on record: Table 8. Here is the method: The SOD activity (in other words, O2^−. scavenging activity) of each Pr-embedded liposome was evaluated by the cytochrome c method proposed by Mccord and Fridovich or Butler et al. [(1) J. M. Mccord and I. Fridovich, J. Biol. Chem., 244, 6049 (1969) and (2) J. Butler, W. H. Kopenol, E. Margoliash, J. Biol. Chem., 257, 10747 (1982)]. Specifically, the evaluation was conducted as will be described hereinafter. Solutions (Solutions A) of each Pr-embedded liposome were prepared at five or more concentration levels of from 0 to 1,000 μM in terms of the concentration of the metalloporphyrin. […] With the resultant mixture, a 7 μg/mL aqueous catalase solution (0.1 mL) and a 25 U/mL aqueous xanthine oxidase (XOD) solution (0.3 mL) were promptly mixed, and UV-vis was measured with time at 550 nm (absorption peak based on the formation of ferrocytochome c)(the final concentrations of the respective components in the test solution were as follows: the metal porphyrin complex, 0 to 100 SM; xanthine, 0.05 mM; XOD, 2.5U/mL; cytochrome c, 10 μM; catalase, 0.23 μg/mL). […] Finally, the concentration (IC50) of each metalloporphyrin complex at IC=50% was determined from the concentration of metalloporphyrin-versus-IC” relationship, and the IC50 was used as an index of the SOSD-activating effect of the metalloporphyrin complex (smaller IC50 indicates higher SOD activity). […]

The conditions of test [3]: literature value reported by Fridovich et al.; Table 6; cited from earlier work.
For test [4] the following is noted: literature value reported by Ohse, Kawakami et al.; Table 7; cited from earlier work.
Test [5] can be described thus: SOD activity (O2-. scavenging) by the stopped-flow method. The settings on record: Table 8. It counts as biochemical. The procedure: The SOD activity (in other words, O2^−. scavenging activity) of each Pr-embedded liposome was evaluated by the stopped-flow method proposed by Riley et al. [D. P. Riley, W. L. Rivers, and R. H. Weiss, Anal. Biochem., 196, 344 (1991)]. Specifically, the evaluation was conducted as will be described hereinafter. At 36° C., a solution of potassium superoxide as an O2^−. production source in dimethylsulfoxide and one of 60 mM HEPES/HEPESNa buffered solutions (pH 8.1), which contained one of the Pr-embedded liposomes at various concentrations, were promptly mixed, and the decay in absorbance at 245 nm due to O2^−. (the decay curve of O2^−. scavenging reaction) was measured with time. From the decay curve, a “ln (absorbance)-versus-time” relationship was determined, and further, an apparent rate constant was calculated from the slope of the relationship. From the slope of the “concentration of metalloporphyrin complex-versus-apparent rate constant” relationship, the rate constant (Kcat) of the O2^−. scavenging reaction was finally determined. As a reference, ion complexes (MnT4 MPyP+1SAS and MnT4 MPyP+4SAS) were also evaluated likewise in SOD activity.
Various metalloporphyrin complexes, which represent Pr-embedded liposomes, were compared in SOD activity. […] Incidentally, the samples were prepared and measured as in Examples 19 and 20.

Where two headings read alike, the source gives them in different places.

Regarding `[NH2][Pt]([NH2])([Cl])[Cl]` [CDDP, cisplatin, reference compound], in test [1], the “viability of LLC versus added concentration” value is listed as “dropped as the added concentration increased”.
For the compound `C[n+]1ccccc1-c1c2nc(c(-c3cccc[n+]3C)c3ccc([n-]3)c(-c3cccc[n+]3C)c3nc(c(-c4cccc[n+]4C)c4ccc1[n-]4)C=C3)C=C2.[Fe+2]` [FeT2 MPyP, iron[5,10,15,20-tetrakis(2-methylpyridyl)porphyrin]], the “viability of LLC versus added concentration” value in test [1] is listed as “dropped as the added concentration increased”. Also, the “viability of LLC compared with CDDP and MMC” value in test [1] (FeT2 MPyP concentrations of 25 μM and higher) is “lower than those in the cases of CDDP and MMC”.
In the case of `CO[C@@]12[C@H](COC(N)=O)C3=C(C(=O)C(C)=C(N)C3=O)N1C[C@@H]1N[C@@H]12` [MMC, mitomycin C, reference compound], in test [1], the “viability of LLC versus added concentration” value is on record as “dropped as the added concentration increased”.
As usually defined, the IC50 is the midpoint of a concentration-inhibition curve. `C[n+]1ccc(-c2c3nc(c(-c4cc[n+](C)cc4)c4ccc([n-]4)c(-c4cc[n+](C)cc4)c4nc(c(-c5cc[n+](C)cc5)c5ccc2[n-]5)C=C4)C=C3)cc1.[Mn+2]` [MnT4MPyP, manganese[5,10,15,20-tetrakis(4-methylpyridyl)porphyrin]]: the IC50 was 740 nM in test [2] and 700 nM in test [3]. For the same compound, the Kcat in test [4] and in test [5] was 2.2e+07 M⁻¹ s⁻¹ each time.

The values are drawn from patent US20050008687A1, “Metal-porphyrin-complex-embedded liposomes, production process thereof, and medicines making use of the same” (Makoto Yuasa, priority 2003, published 2005).
